We go through 23 compounds from patent US7511047B2, “Kinase inhibitors” (Cytopia Research Pty Ltd, priority 2002, dated 2009).

Assay type in all cases: biochemical
One assay deals with hck (Homo sapiens, UniProt P08631). As to the kind of experiment: hck kinase assay (ELISA or Alphascreen). As to conditions: capacity to inhibit 50% of activity at 50 μM; read-out: hck inhibitory activity. The protocol:
(§1) For screening purposes, compounds were diluted in 96 well plates at a concentration of 20 μM. Plates were warmed at 37° C. for 30 minutes before assay.
(§2) Kinase assays were performed either in a 96 well capture-based ELISA assay or in 384 well Optiplates (Packard) using an Alphascreen Protein Tyrosine Kinase kit. In either casse using approximately 1.5 μg of affinity purified PTK domain in the presence of 50 mM HEPES, pH 7.5, 10 mM MgCl2, 150 mM NaCl and 10 μM-1 mM ATP. The biotinylated substrate biotin-EGPWLEEEEEAYGWMDF-NH2 (SEQ ID NO:9) (final concentration 5 μM) was used as substrate. In the ELISA assay tyrosine phosphorylation was quantitated following transfer to an avidin coated ELISA plate using peroxidase-linked anti-phospho-tyrosine antibody PY20. In the Alphascreen assay, Alphascreen phosphotyrosine acceptor beads followed by streptavidin donor beads were added under subdued light. The ELISA plates were read on a BMG Fluorostar, the Alphascreen plates were read on a Packard Fusion Alpha. Inhibitors were added to the assays fifteen minutes prior to the addition of ATP. Inhibitors were added in aqueous DMSO, with DMSO concentrations never exceeding 1%.
For orientation: An ELISA detects its analyte on a solid surface through an enzyme-linked reagent.

Another assay deals with T1, abl (Homo sapiens, UniProt P00519).
T1 sequence (P00519 242-493 limits assumed): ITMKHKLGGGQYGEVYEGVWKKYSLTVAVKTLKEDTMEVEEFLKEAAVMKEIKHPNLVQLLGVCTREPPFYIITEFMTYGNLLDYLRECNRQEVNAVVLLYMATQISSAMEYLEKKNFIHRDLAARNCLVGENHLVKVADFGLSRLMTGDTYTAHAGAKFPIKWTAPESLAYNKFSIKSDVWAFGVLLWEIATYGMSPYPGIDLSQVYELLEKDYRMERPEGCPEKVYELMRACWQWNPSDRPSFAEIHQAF
Description: abl kinase assay (ELISA or Alphascreen). As to conditions: capacity to inhibit 50% of activity at 50 μM; read-out: abl inhibitory activity. The method, then: as §1, §2

The next assay deals with kdr (Homo sapiens, UniProt P35968). Description: kdr kinase assay (ELISA or Alphascreen). Particulars: capacity to inhibit 50% of activity at 50 μM; read-out: kdr inhibitory activity. The protocol: as §1, §2
The next assay deals with T2, Jak3 (Homo sapiens, UniProt P52333).
T2 construct: The kinase domain of humanJAK3 was amplified from U937mRNA; His tag (from pFastBac HTb vector) (N); made in house; host or cells: baculovirus; Sf9 insect cells for virus, High Five cells for large-scale production
Description: JAK3 kinase domain assay (ELISA or Alphascreen). Particulars: capacity to inhibit 50% of activity at 50 μM; read-out: Jak3 inhibitory activity. The method, then: as §1
• JAK2 PCR products were cloned into the pFastBac HTc expression vector (Gibco) via the Sal I and Not I sites. The JAK2 plasmid was then transformed into competent DH10Bac cells (Gibco), and the recombinant baculovirus produced prepared for transfection into Sf9 insect cells. JAK3 • The kinase domain of humanJAK3 was amplified from U937mRNA using the polymerase chain reaction with the following primers:
• JAK3 PCR products were cloned into the pFastBac HTb expression vector (Gibco) via the Xho I and Kpn I sites. The JAK3 plasmid was then transformed into competent DH10Bac cells (Gibco), and the recombinant baculovirus produced prepared for transfection into Sf9 insect cells. TYK2 • The kinase domain of humanTYK2 was amplified from A549 mRNA using the polymerase chain reaction with the following primers: […]
(§3) Baculovirus preparations from each of the JAK family members were infected into five litres of High Five cells (Invitrogen) grown in High Five serum free medium (Invitrogen) to a cell density of approximately 1-2×10^6 cells/ml. Cells are infected with virus at a MOI of 0.8-3.0. Cells were harvested and lysed. JAK kinase domains were purified by affinity chromatography on a Probond (Invitrogen) nickel chelate affinity column.
as §2

Another assay concerns the target T3, Jak2 (Homo sapiens, UniProt O60674).
T3 construct: The kinase domain of humanJAK2 was amplified from U937mRNA; His tag (from pFastBac HTc vector) (N); made in house; host or cells: baculovirus; Sf9 insect cells for virus, High Five cells for large-scale production
As to the kind of experiment: JAK2 kinase domain assay (ELISA or Alphascreen). Particulars: capacity to inhibit 50% of activity at 50 μM; read-out: Jak2 inhibitory activity. The method, then: as §1
• JAK1 PCR products were cloned into the pFastBac HTb expression vector (Gibco) via the Xho I and Kpn I sites. The JAK1 plasmid was then transformed into competent DH10Bac cells (Gibco), and the recombinant baculovirus produced prepared for transfection into Sf9 insect cells. JAK2 • The kinase domain of humanJAK2 was amplified from U937mRNA using the polymerase chain reaction with the following primers:
• JAK2 PCR products were cloned into the pFastBac HTc expression vector (Gibco) via the Sal I and Not I sites. The JAK2 plasmid was then transformed into competent DH10Bac cells (Gibco), and the recombinant baculovirus produced prepared for transfection into Sf9 insect cells. JAK3 • The kinase domain of humanJAK3 was amplified from U937mRNA using the polymerase chain reaction with the following primers: […]
as §3, §2

Chain of hck (P08631 262-515 limits assumed, species assumed): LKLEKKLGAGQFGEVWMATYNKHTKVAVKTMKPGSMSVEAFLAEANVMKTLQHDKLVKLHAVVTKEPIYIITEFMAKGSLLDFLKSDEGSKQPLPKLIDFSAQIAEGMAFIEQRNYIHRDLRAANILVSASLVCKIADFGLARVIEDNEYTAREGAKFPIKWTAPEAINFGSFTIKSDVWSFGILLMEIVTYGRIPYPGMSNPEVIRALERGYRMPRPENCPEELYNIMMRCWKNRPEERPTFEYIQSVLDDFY
T2 sequence (P52333 822-1111 limits assumed): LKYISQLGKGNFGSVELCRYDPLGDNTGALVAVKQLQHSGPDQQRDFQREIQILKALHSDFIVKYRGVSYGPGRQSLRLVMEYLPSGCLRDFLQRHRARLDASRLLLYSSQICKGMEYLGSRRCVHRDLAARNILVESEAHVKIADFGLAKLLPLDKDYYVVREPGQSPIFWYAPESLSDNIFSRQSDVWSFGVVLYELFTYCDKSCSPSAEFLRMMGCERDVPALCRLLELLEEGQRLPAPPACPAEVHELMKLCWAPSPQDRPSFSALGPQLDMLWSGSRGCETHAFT
Chain of kdr (P35968 834-1162 limits assumed, species assumed): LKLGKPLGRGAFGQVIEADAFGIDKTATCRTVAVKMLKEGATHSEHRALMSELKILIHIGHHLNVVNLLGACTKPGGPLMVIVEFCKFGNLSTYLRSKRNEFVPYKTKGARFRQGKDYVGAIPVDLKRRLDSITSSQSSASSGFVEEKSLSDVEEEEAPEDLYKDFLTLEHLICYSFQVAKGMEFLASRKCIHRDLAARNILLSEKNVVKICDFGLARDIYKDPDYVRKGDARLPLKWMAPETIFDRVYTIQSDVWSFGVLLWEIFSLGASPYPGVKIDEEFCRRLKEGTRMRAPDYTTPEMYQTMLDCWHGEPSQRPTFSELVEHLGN
T3 sequence (O60674 849-1124 limits assumed): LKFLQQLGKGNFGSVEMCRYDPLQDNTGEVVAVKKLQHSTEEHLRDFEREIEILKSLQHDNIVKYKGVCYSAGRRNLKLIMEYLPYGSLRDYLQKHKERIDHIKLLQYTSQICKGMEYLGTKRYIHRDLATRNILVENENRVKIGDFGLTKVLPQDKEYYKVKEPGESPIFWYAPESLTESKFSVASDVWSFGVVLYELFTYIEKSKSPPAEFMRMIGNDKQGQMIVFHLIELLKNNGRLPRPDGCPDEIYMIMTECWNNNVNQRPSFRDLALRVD

In the case of `C[C@H](Nc1cncc(-n2cnc3cc(NC(=O)C4CC4)ccc32)n1)c1ccccc1`, the inhibition at 50 µM on hck is more than 50%; on abl it was more than 50%; at kdr, more than 50%; on Jak3, less than 50%; at Jak2 it was less than 50%.

Consider `C[C@H](Nc1cncc(-n2cnc3ccc(C(N)=O)cc32)n1)c1ccccc1`, for which the inhibition at 50 µM on hck is more than 50%; on abl, more than 50%; at kdr it was more than 50%; at Jak3, less than 50%; at Jak2, more than 50%.

Take `C[C@H](Nc1cncc(-n2cnc3cc(C(=O)NCc4ccccc4)ccc32)n1)c1ccccc1`: the inhibition at 50 µM was more than 50% on hck; more than 50% on abl; more than 50% on kdr; less than 50% at Jak3; less than 50% at Jak2.

Turning to `C[C@H](Nc1cncc(-n2cnc3ccccc32)n1)c1ccc(-c2cccnc2)cc1`, the inhibition at 50 µM at hck is less than 50%; at abl, less than 50%; at kdr, more than 50%; at Jak3, more than 50%; at Jak2, more than 50%.

With `C[C@H](Nc1cncc(-n2cnc3cc(CO)ccc32)n1)c1ccccc1`, the inhibition at 50 µM at hck was more than 50%; at abl, less than 50%; at kdr it was more than 50%; on Jak3 it was less than 50%; on Jak2, more than 50%.

As for `CNC(=O)c1ccc2c(c1)ncn2-c1cncc(N[C@@H](C)c2ccccc2)n1`, the inhibition at 50 µM on hck was more than 50%; at abl it was more than 50%; at kdr, more than 50%; on Jak3, less than 50%; at Jak2 it was more than 50%.

Turning to `C[C@H](Nc1cncc(-n2cnc3cc(NS(=O)(=O)c4ccccc4)ccc32)n1)c1ccccc1`, the inhibition at 50 µM on hck was less than 50%; at abl, less than 50%; on kdr it was more than 50%; at Jak3, more than 50%; at Jak2, more than 50%.

On to `C[C@H](Nc1cncc(-n2cnc3cc(NC(=O)[C@@H]4CCCN4C(=O)OC(C)(C)C)ccc32)n1)c1ccccc1`, for which the inhibition at 50 µM is more than 50% at hck; more than 50% at abl; more than 50% at kdr; less than 50% on Jak3; more than 50% on Jak2.

As to `C[C@H](Nc1cncc(-n2cnc(-c3ccccc3)c2)n1)c1ccccc1`, the inhibition at 50 µM was more than 50% at hck; less than 50% on abl; less than 50% on kdr; more than 50% at Jak3; less than 50% at Jak2.

As for `CC(Nc1cncc(-n2cnc3ccccc32)n1)c1cccnc1` (centres unmarked), the inhibition at 50 µM on hck, on abl, at kdr, on Jak3 and on Jak2 was more than 50% each time.

For `c1ccc2c(c1)ncn2-c1cncc(Nc2ccc(N3CCOCC3)cc2)n1`, the inhibition at 50 µM at hck is more than 50%; at abl, less than 50%; at kdr, more than 50%; on Jak3 it was less than 50%; on Jak2 it was less than 50%.

Take `CC(Nc1cncc(-n2cnc3ccc(CN4CCN(C)CC4)cc32)n1)c1ccc(F)cc1` (centres unmarked): the inhibition at 50 µM at hck was more than 50%; at abl it was less than 50%; at kdr, more than 50%; at Jak3, less than 50%; on Jak2, less than 50%.

With `C[C@H](Nc1cncc(-n2cnc3ccc(NS(C)(=O)=O)cc32)n1)c1ccccc1`, the inhibition at 50 µM at hck is more than 50%; at abl, more than 50%; on kdr it was more than 50%; at Jak3, less than 50%; at Jak2, more than 50%.

With `CC(=O)Nc1ccc2c(c1)ncn2-c1cncc(N[C@@H](C)c2ccccc2)n1`, the inhibition at 50 µM on hck is more than 50%; on abl, more than 50%; at kdr it was more than 50%; at Jak3, less than 50%; at Jak2, less than 50%.

Consider `C[C@H](Nc1cncc(-n2cnc3cc(C(=O)NCCO)ccc32)n1)c1ccccc1`, for which the inhibition at 50 µM on hck, on abl, on kdr, at Jak3 and at Jak2 was more than 50% in each case.

In the case of `C[C@H](Nc1cncc(-n2cnc3cc(C(=O)NCCN(C)C)ccc32)n1)c1ccccc1`, the inhibition at 50 µM at hck was more than 50%; at abl, more than 50%; at kdr, more than 50%; at Jak3 it was less than 50%; on Jak2, more than 50%.

Take `Cc1nccn1-c1cncc(NCc2ccc(F)cc2)n1`: the inhibition at 50 µM on hck is more than 50%; at abl it was less than 50%; on kdr, less than 50%; at Jak3, more than 50%; on Jak2, less than 50%.

For `c1cn(-c2cncc(Nc3ccc(N4CCOCC4)cc3)n2)cn1`, the inhibition at 50 µM was more than 50% at hck; more than 50% on abl; less than 50% at kdr; less than 50% at Jak3; more than 50% at Jak2.

For the compound `C[C@H](Nc1cncc(-n2cnc3ccccc32)n1)c1ccc(Br)cc1`, the inhibition at 50 µM on abl is more than 50%; on kdr it was more than 50%; on Jak3 it was less than 50%; at Jak2 it was less than 50%.

Consider `C[C@H](Nc1cncc(-n2cnc3cnccc32)n1)c1ccccc1`, for which the inhibition at 50 µM on hck, on abl, on kdr, on Jak3 and at Jak2 was more than 50% in each case.

Turning to `CC(Nc1cncc(-n2cnc3ccccc32)n1)c1ccc(F)cc1` (centres unmarked), the inhibition at 50 µM is more than 50% on hck; more than 50% at abl; more than 50% on kdr; less than 50% at Jak3; more than 50% on Jak2.

`C[C@H](Nc1cncc(-n2cnc3cc(N)ccc32)n1)c1ccccc1`: the inhibition at 50 µM at hck is more than 50%; on abl, more than 50%; on kdr, more than 50%; at Jak3 it was less than 50%; on Jak2, more than 50%.

For the compound `COc1ccc([C@H](C)Nc2cncc(-n3cnc4ccccc43)n2)cc1`, the inhibition at 50 µM on abl was more than 50%; on kdr, more than 50%; at Jak3, less than 50%; on Jak2, less than 50%.
